Measured values as given in patent publication US6037348A (priority 1997, dated 2000).

Tested on: influenza virus strain A/Kaw/86

Compound: COC(=O)[C@@]1(C)CCC[C@]2(C)c3cc(OC)ccc3C(=O)C[C@@H]12 [COMPOUND A]
- plaque morphology of mutant A2: altered plaque morphology
